According to patent US20060123492A1, “Methods of identifying modulators of NMUR2-mediated activity” (priority 2003, published 2006):

How the values were obtained:
NMUR2 knock-out mice = test: Tail flick test, effect of morphine in NMUR2 knock-out mice; type: in vivo; settings: adult male NMUR2 knock-out mice, 30 minutes after injection
Source text: (§1) Mice were gently held on a platform of an automated apparatus wrapped in a soft cloth. Their tails were exposed and extended in a straight line along a narrow groove. Once the tail was laying flat in the groove, the experimenter activated a high-intensity and heat producing narrow beam of light that was directed at a small spot in the tail. When the animal reached its pain threshold, a spinal reflex caused the tail to “flick” out of the light beam, automatically stopping a timer that started when the beam was activated. Each animal was tested 3 times, on different regions of the tail, and the median latency to “flick” was recorded as the nociceptive threshold. Experiments were performed blind with respect to the animals' genotype. The results are shown in FIGS. 1 and 2 in wild-type, heterozygous, and NMUR2 knock-out mice (FIG. 1) and for male and female mice (FIG. 2).
(§2) Adult male mice were treated with the mu opiate receptor agonist morphine at either 0, 2.5, 5, or 10 mg/kg sub-cutaneously. At each dose, 4 wild type mice and 4 knock-outs were treated. Tail flick latencies were determined 30 minutes after injection of morphine or vehicle, with a maximum flick latency of 15 seconds allowed to prevent tissue damage. […] The difference between the tail flick latencies of the two genotypes at 2.5 mg/kg morphine could not be accounted for by the baseline difference in tail flick latencies normally observed between the wild types and the knock-outs, both because the difference in latency was larger, and because the enhancement of morphine analgesia is significant while the mild baseline analgesia observed in the NmUR2 knock-outs was not.

wild type mice = test: Tail flick test, effect of morphine in wild type mice; type: in vivo; settings: adult male wild type mice, 30 minutes after injection
Source text: as §1, §2

CN1CC[C@]23c4c5ccc(O)c4O[C@H]2[C@@H](O)C=C[C@H]3[C@H]1C5 [morphine]
analgesia (tail flick latency) (NMUR2 knock-out mice; 2.5 mg/kg sub-cutaneously): augmented analgesia | tail flick latency (NMUR2 knock-out mice; 2.5 mg/kg sub-cutaneously, maximum flick latency of 15 seconds allowed): 15 s | analgesia (tail flick latency) (NMUR2 knock-out mice; 5 mg/kg sub-cutaneously): maximal analgesia | analgesia (tail flick latency) (NMUR2 knock-out mice; 10 mg/kg sub-cutaneously): maximal analgesia | analgesia (tail flick latency) (wild type mice; 2.5 mg/kg sub-cutaneously): mild analgesia | analgesia (tail flick latency) (wild type mice; 5 mg/kg sub-cutaneously): maximal analgesia | analgesia (tail flick latency) (wild type mice; 10 mg/kg sub-cutaneously): maximal analgesia
